{
  "source": "the OPERA property sets (Mansouri et al. 2018)",
  "data": [
    {"smiles": "COC(=O)C(C)Oc1ccc(Oc2ncc(C(F)(F)F)cc2Cl)cc1", "note": "(centres undefined)", "values": [
      {"measurement": "logP", "result": 4.07}
    ]},
    {"smiles": "CCOC(=O)[C@@H](C)Oc1ccc(Oc2nc3ccc(Cl)cc3o2)cc1", "values": [
      {"measurement": "logP", "result": 4.58}
    ]},
    {"smiles": "CCNc1nc(Cl)nc(N(CC)CC)n1", "values": [
      {"measurement": "solubility", "setting": "25 °C", "result": 0.0871, "unit": "mM"}
    ]},
    {"smiles": "COc1cc(OC)nc(Oc2cccc(Oc3nc(OC)cc(OC)n3)c2C(=O)[O-])n1.[Na+]", "values": [
      {"measurement": "logP", "result": -1.03}
    ]},
    {"smiles": "C#CC(OC(=O)C1C(C=C(C)C)C1(C)C)/C(C)=C/CC", "note": "(centres undefined)", "values": [
      {"measurement": "solubility", "setting": "25 °C", "result": 0.000404, "unit": "mM"}
    ]},
    {"smiles": "COc1nc(C)nc(NC(=O)NS(=O)(=O)c2ccccc2OCCCl)n1", "values": [
      {"measurement": "logD", "setting": "pH 5.0", "result": 1.1},
      {"measurement": "solubility", "setting": "pH 5.0, 25 °C", "result": 0.0796, "unit": "mM"}
    ]},
    {"smiles": "O=C(Nc1ccccc1)Nc1ccnc(Cl)c1", "values": [
      {"measurement": "logP", "result": 3.2}
    ]},
    {"smiles": "COC(=O)c1c(Cl)nn(C)c1S(=O)(=O)NC(=O)Nc1nc(OC)cc(OC)n1", "values": [
      {"measurement": "solubility", "setting": "pH 5.0, 20 °C", "result": 0.0343, "unit": "mM"},
      {"measurement": "logD", "setting": "pH 7.0", "result": -0.02}
    ]},
    {"smiles": "CC(C)C1(C)N=C(c2nc3ccccc3cc2C(=O)O)NC1=O", "note": "(centres undefined)", "values": [
      {"measurement": "solubility", "setting": "25 °C", "result": 0.289, "unit": "mM"}
    ]},
    {"smiles": "CC(C)(C)[C@H](O)/C(=C\\c1ccc(Cl)cc1)n1cncn1", "values": [
      {"measurement": "solubility", "setting": "25 °C", "result": 0.0288, "unit": "mM"}
    ]},
    {"smiles": "CCOP(=O)(SC(C)CC)N1CCSC1=O", "note": "(centres undefined)", "values": [
      {"measurement": "logP", "result": 1.68}
    ]},
    {"smiles": "C#CCOC(=O)[C@@H](C)Oc1ccc(Oc2ncc(Cl)cc2F)cc1", "values": [
      {"measurement": "logP", "result": 3.9}
    ]},
    {"smiles": "CC(C)=C1OC(=O)N(c2cc(OC3CCCC3)c(Cl)cc2F)C1=O", "values": [
      {"measurement": "solubility", "setting": "25 °C", "result": 0.000611, "unit": "mM"}
    ]},
    {"smiles": "CCCSC(=O)N(CCC)CCC", "values": [
      {"measurement": "logP", "result": 3.84},
      {"measurement": "solubility", "setting": "20 °C", "result": 0.443, "unit": "mM"}
    ]},
    {"smiles": "CCSCc1ccccc1OC(=O)NC", "values": [
      {"measurement": "logP", "result": 2.04}
    ]},
    {"smiles": "CCNc1nc(Cl)nc(NCC)n1", "values": [
      {"measurement": "solubility", "setting": "20 °C", "result": 0.046, "unit": "mM"}
    ]},
    {"smiles": "CCc1nn(C)c(C(=O)NCc2ccc(C(C)(C)C)cc2)c1Cl", "values": [
      {"measurement": "logP", "result": 4.61}
    ]},
    {"smiles": "CC(C)(C)C(O)/C(=C\\c1ccc(Cl)cc1)n1cncn1", "note": "(centres undefined)", "values": [
      {"measurement": "logP", "result": 3.67}
    ]},
    {"smiles": "NC(=O)c1nc(-c2ccccc2)n(-c2ccc(Cl)c(COCC(F)(F)C(F)(F)F)c2)n1", "values": [
      {"measurement": "solubility", "setting": "pH 7.4, 20 °C", "result": 0.00217, "unit": "mM"}
    ]},
    {"smiles": "CCCC(=NOCC)C1=C(O)CC(C2CCCSC2)CC1=O", "note": "(centres undefined)", "values": [
      {"measurement": "solubility", "setting": "20 °C", "result": 0.123, "unit": "mM"}
    ]},
    {"smiles": "CC(C)OC(=O)C(C(=O)OC(C)C)=C1SCCS1", "values": [
      {"measurement": "solubility", "setting": "25 °C", "result": 0.175, "unit": "mM"}
    ]},
    {"smiles": "O=C(O)c1ccccc1C(=O)Nc1ccccc1", "values": [
      {"measurement": "solubility", "setting": "20 °C", "result": 0.0829, "unit": "mM"}
    ]},
    {"smiles": "CCOC(=O)C1(C)OC(=O)N(c2cc(Cl)cc(Cl)c2)C1=O", "note": "(centres undefined)", "values": [
      {"measurement": "logP", "result": 3.15}
    ]},
    {"smiles": "CCNP(=S)(OC)O/C(C)=C/C(=O)OC(C)C", "note": "(centres undefined)", "values": [
      {"measurement": "logP", "result": 3.82}
    ]},
    {"smiles": "OC(c1ccc(Cl)cc1)(c1ccc(Cl)cc1)C(Cl)(Cl)Cl", "values": [
      {"measurement": "solubility", "setting": "25 °C", "result": 0.00277, "unit": "mM"}
    ]},
    {"smiles": "Cc1c(COC(=O)[C@@H]2[C@H](/C=C(\\Cl)C(F)(F)F)C2(C)C)cccc1-c1ccccc1", "note": "(racemic)", "values": [
      {"measurement": "solubility", "result": 0.000236, "unit": "mM"}
    ]},
    {"smiles": "COc1ccc(-c2ccccc2)cc1NNC(=O)OC(C)C", "values": [
      {"measurement": "solubility", "setting": "20 °C", "result": 0.0125, "unit": "mM"}
    ]},
    {"smiles": "Fc1cccc(F)c1-c1nnc(-c2ccccc2Cl)nn1", "values": [
      {"measurement": "logP", "result": 3.3}
    ]},
    {"smiles": "CCCN(CCC)c1c([N+](=O)[O-])cc(S(N)(=O)=O)cc1[N+](=O)[O-]", "values": [
      {"measurement": "logP", "result": 3.73}
    ]},
    {"smiles": "CC#Cc1cc(C)nc(Nc2ccccc2)n1", "values": [
      {"measurement": "logP", "result": 3.28}
    ]},
    {"smiles": "CN(C)NC(=O)CCC(=O)O", "values": [
      {"measurement": "logP", "result": -1.5}
    ]},
    {"smiles": "COP(=O)(OC)SCn1c(=O)oc2cc(Cl)cnc21", "values": [
      {"measurement": "logP", "result": 1.05}
    ]},
    {"smiles": "COC(C)(C)CCCC(C)C/C=C/C(C)=C/C(=O)OC(C)C", "note": "(centres undefined)", "values": [
      {"measurement": "solubility", "result": 0.00451, "unit": "mM"}
    ]},
    {"smiles": "Oc1ccc(Cl)cc1Cc1cc(Cl)ccc1O", "values": [
      {"measurement": "solubility", "setting": "25 °C", "result": 0.111, "unit": "mM"}
    ]},
    {"smiles": "C=CCCCOC(=O)C(CC)N(Cc1ccco1)C(=O)n1ccnc1", "note": "(centres undefined)", "values": [
      {"measurement": "logP", "result": 3}
    ]},
    {"smiles": "CCCCC(O)(Cn1cncn1)c1ccc(Cl)cc1Cl", "note": "(centres undefined)", "values": [
      {"measurement": "logP", "result": 3.9}
    ]},
    {"smiles": "ClC=CCCl", "note": "(mixture of isomers)", "values": [
      {"measurement": "logP", "result": 2.04}
    ]},
    {"smiles": "CCCN(CC)CC1COC2(CCC(C(C)(C)C)CC2)O1", "note": "(centres undefined)", "values": [
      {"measurement": "solubility", "setting": "pH 7.0, 20 °C", "result": 1.58, "unit": "mM"}
    ]},
    {"smiles": "C/C(=N\\NC(=O)Nc1cc(F)cc(F)c1)c1ncccc1C(=O)O", "values": [
      {"measurement": "solubility", "result": 0.188, "unit": "mM"}
    ]},
    {"smiles": "COCC(=O)N(c1c(C)cccc1C)N1CCOC1=O", "values": [
      {"measurement": "logP", "result": 0.8},
      {"measurement": "solubility", "setting": "20 °C", "result": 12.2, "unit": "mM"}
    ]},
    {"smiles": "CC(C)N(Cc1ccccc1)C(=O)C(C)(C)C", "values": [
      {"measurement": "logP", "result": 3},
      {"measurement": "solubility", "setting": "pH 7.0, 20 °C", "result": 3.39, "unit": "mM"}
    ]},
    {"smiles": "CS(=O)(=O)c1cc(C(F)(F)F)ccc1C(=O)c1cnoc1C1CC1", "values": [
      {"measurement": "logP", "result": 2.32},
      {"measurement": "solubility", "setting": "pH 5.5, 20 °C", "result": 0.0173, "unit": "mM"}
    ]},
    {"smiles": "Cc1cc(C2CC2)nc(Nc2ccccc2)n1", "values": [
      {"measurement": "logP", "result": 4}
    ]},
    {"smiles": "C=C(C)CN(CC)c1c([N+](=O)[O-])cc(C(F)(F)F)cc1[N+](=O)[O-]", "values": [
      {"measurement": "solubility", "setting": "pH 7.0, 25 °C", "result": 0.000735, "unit": "mM"}
    ]},
    {"smiles": "CCOC(=O)Cn1c(=O)sc2cccc(Cl)c21", "values": [
      {"measurement": "solubility", "setting": "20 °C", "result": 0.173, "unit": "mM"}
    ]},
    {"smiles": "O=C(NC(=O)c1c(F)cccc1F)Nc1cc(Cl)c(OC(F)(F)C(F)F)c(Cl)c1", "values": [
      {"measurement": "logP", "result": 5.68}
    ]},
    {"smiles": "Cc1ccc(N(SC(F)(Cl)Cl)S(=O)(=O)N(C)C)cc1", "values": [
      {"measurement": "logP", "result": 3.9},
      {"measurement": "solubility", "setting": "20 °C", "result": 0.00259, "unit": "mM"}
    ]},
    {"smiles": "CC1(C)CCC(=Cc2ccc(Cl)cc2)C1(O)Cn1cncn1", "note": "(centres undefined)", "values": [
      {"measurement": "logP", "result": 3.29}
    ]},
    {"smiles": "COCc1cnc(C2=NC(C)(C(C)C)C(=O)N2)c(C(=O)O)c1", "note": "(centres undefined)", "values": [
      {"measurement": "logP", "result": 0.73}
    ]},
    {"smiles": "CCC1(CC2(c3cccc(Cl)c3)CO2)C(=O)c2ccccc2C1=O", "note": "(centres undefined)", "values": [
      {"measurement": "solubility", "setting": "25 °C", "result": 0.0411, "unit": "mM"}
    ]},
    {"smiles": "COc1ccsc1CN(C(=O)CCl)c1c(C)cccc1C", "values": [
      {"measurement": "logP", "result": 3.53},
      {"measurement": "solubility", "setting": "20 °C", "result": 0.034, "unit": "mM"}
    ]},
    {"smiles": "CCN(Cc1ccc(Cl)nc1)C(=C[N+](=O)[O-])NC", "values": [
      {"measurement": "solubility", "setting": "pH 7.0, 20 °C", "result": 3100, "unit": "mM"}
    ]},
    {"smiles": "Cc1cc(C)nc(NC(=O)NS(=O)(=O)c2ccccc2C(=O)OC2COC2)n1", "values": [
      {"measurement": "solubility", "setting": "pH 5.1, 25 °C", "result": 0.128, "unit": "mM"}
    ]},
    {"smiles": "CCCCOCN(C(=O)CCl)c1c(CC)cccc1CC", "values": [
      {"measurement": "solubility", "setting": "20 °C", "result": 0.0688, "unit": "mM"}
    ]},
    {"smiles": "CO/C=C(/C(=O)OC)c1ccccc1Oc1cc(Oc2ccccc2C#N)ncn1", "values": [
      {"measurement": "logP", "result": 2.5},
      {"measurement": "solubility", "setting": "20 °C", "result": 0.0149, "unit": "mM"}
    ]},
    {"smiles": "C#CCOc1cc(-n2nc3n(c2=O)CCCC3)c(Cl)cc1Cl", "values": [
      {"measurement": "solubility", "setting": "pH 7.0", "result": 0.0473, "unit": "mM"}
    ]},
    {"smiles": "COCCN(C(=O)CCl)c1c(C)cccc1C", "values": [
      {"measurement": "logP", "result": 2.17},
      {"measurement": "solubility", "setting": "20 °C", "result": 8.59, "unit": "mM"}
    ]},
    {"smiles": "CCOP(=O)(SC(C)CC)SC(C)CC", "note": "(centres undefined)", "values": [
      {"measurement": "logP", "result": 3.9},
      {"measurement": "solubility", "setting": "25 °C", "result": 0.917, "unit": "mM"}
    ]}
  ]
}
